Assay results published in patent publication US20140323575A1, “TYROSINE ISOMERS AS THERAPEUTIC AGENTS” (CONSEJO NACIONAL DE INVESTIGACIONES CIENTIFICAS Y TECNICAS …, priority 2011, published 2014).

Experiments:
[1] = tested on: inhibitory activity present in serum from LB tumor-bearing mice; experiment: Titer of growth-inhibitory activity in serum from drug-treated LB tumor-bearing mice; type: in vivo; conditions: for effect on serum inhibitory activity of LB tumor-bearing mice: treatment of LB tumor-bearing mice
LB tumor cells [2] = experiment: Rescue of in vitro LB tumor inhibition mediated by m- or o-tyrosine by co-culturing with amino acids; type: cell-based, mice; conditions: co-culture with m- or o-tyrosine
Experimental: (§1) Each point (percentage of cpm incorporated by LB cells as compared with the control) represents the mean±SE of 3 experiments. Significance versus control, meta-tyrosine and peak 2: P<0.001 at >2.75 μg/mL; peak 2: P<0.05 at 2.75 μg/mL. ortho-tyrosine P<0.001 at 500 to 125 μg/mL; P<0.002 at 30 μg/mL. Peak 3: P<0.002 and P<0.01, at 31 and 15.5 μg/mL, respectively. Rescue of in vitro LB tumor inhibition mediated by meta-tyrosine (150 μg/mL)(B) or ortho-tyrosine (150 μg/mL) (C) by co-culturing with 150 μg/mL of individual protein amino acids. Each value represents the mean±SE of 8 to 18 determinations for (B) and 4 to 9 determinations for (C). a, P<0.01; c, P<0.001 versus meta- or ortho-tyrosine. Data with saline was similar to data obtained with each amino acid alone.

LB tumor = experiment: In vivo growth of s.c. LB tumor implants (primary, secondary under CR, established, ascitic); set-up: species or system mice
Experimental: Twenty mice received an s.c. implant of 1×10^6 LB cells in the right flank, and, 7 days later, an s.c. secondary implant of 1×10^5 LB tumor cells in the left flank. […] The remaining 10 mice received 0.2 mL of phenylalanine (500 μg/mL) at the site of the secondary implant, daily, for 8 days, starting 1 hour after the secondary inoculum [CR+Phe (-□-)]. Controls were 10 mice receiving 1×10^5 LB tumor cells in the left flank only [control (-Δ-)]. A fourth group received the tumor inoculum in the left flank but also meta-tyrosine at the site of tumor implant (0.2 mL of 500 μg/mL, n=10) or by the intraperitoneal route (0.5 mL of 1,000 μg/mL, n=6), daily, for 8 days, starting 1 hour after tumor inoculum [control+m-Tyr: (-▴-)]. A fifth group received the tumor inoculum in the left flank and also meta-tyrosine (0.2 mL of 500 μg/mL, n=5) at the site of tumor growth, daily for 5 days, starting (see arrow) when LB was an established tumor measuring 60 to 70 mm^3 [est. LB+m-Tyr: (-X-)]. Abscissa, days after tumor implant in the left flank. Ordinate, volume of the tumors implanted in the left flank. CR and control+m-Tyr versus control: P<0.001 at day 9 and P<0.002 at days 5 and 7; CR and control+m-Tyr versus CR+Phe: P<0.001 at days 5, 7 and […]; est. LB+m-Tyr versus control and CR+Phe: P<0.002 at day 9. Control+tyrosine or saline, control; CR+tyrosine or saline, CR. FIG. 6B is a microscopic view showing many tumor cells expressing Ki-67 protein in both CR+phenylalanine (B1) and control (B2) groups and few tumor cells expressing Ki-67 in both CR (B3) and control+meta-tyrosine (B4) groups (H×400). FIG. 6C illustrates a representative experiment showing the frequency distribution histogram of viable LB cells from a control tumor (C1), from a secondary tumor inhibited by CR (C2), and from a tumor inhibited by periodic intraumoral injection of meta-tyrosine (C3). Samples of tumor cells were collected 9 days after the s.c. inoculation of 1×10^5 LB tumor cells.

MC-C tumor = experiment: In vivo growth of s.c. MC-C fibrosarcoma implants; set-up: species or system mice; conditions: secondary MC-C implant in primary tumor-bearing mice, 0.2 ml of 500 μg/ml daily for 19 days at the site
Experimental: Twelve mice received a s.c. implant of 5×10^6 MC-C tumor cells in the right flank and 25 days later they received a secondary implant of 2×10^6 MC-C tumor cells in the left flank. […] The remaining 6 mice received 0.2 ml of phenylalanine (500 μg/ml) at the site of the secondary implant, daily, for 19 days, starting 1 hour later than the secondary implant. These secondary implants grew as in 6 controls only receiving the implant in the left flank (tumor volumes of secondary tumor+phenylalanine and of controls, 20 days after the implant in the left flank were =680±152 mm^3 and 524±88 mm^3, respectively). […] Significance: Secondary tumor vs. control: p<0.01; vs. secondary tumor+phenylalanine: p<0.02. Control+m-tyrosine vs. control and vs. secondary tumor+phenylalanine: p<0.02.

CEI tumor = experiment: In vivo growth of s.c. CEI epidermoid carcinoma implants; set-up: species or system mice; conditions: secondary CEI implant in primary tumor-bearing mice, 0.2 ml of 500 μg/ml daily for 19 days at the site
Experimental: Twelve mice received a s.c. implant of 1×10^6 CEI tumor cells in the right flank and 28 days later they received a secondary implant of 3×10^5 CEI tumor cells in the left flank. […] The remaining 6 mice received 0.2 ml of phenylalanine (500 μg/ml) at the site of the secondary implant, daily, for 19 days, starting 1 hour later than the secondary implant. These secondary implants grew as in 6 controls only receiving the implant in the left flank (tumor volumes of secondary tumor+phenylalanine and of controls, 20 days after the implant in the left flank were 358±38 mm^3 and 373±93 mm^3, respectively). […] Significance: Secondary tumor and control+m-tyrosine vs. control: p<0.01; vs. secondary tumor+phenylalanine: p<0.001.

ERK1 and ERK2 = experiment: Western blot of p-ERK 1/2 in LB tumor cells; type: cell-based, mice; conditions: added together with m-tyrosine, 250 μg/mL each, 3 minutes
Experimental: (§2) FIG. 8 illustrates the effect of meta-tyrosine on the expression of phosphorylated (p)-Erk 1/2 and p-STAT3 in LB tumor cells using Western blot: 3×10^5 LB tumor cells in 0.1 mL of medium were cultured in the presence of 0.1 mL of meta-tyrosine (m-Tyr; 250 μg/mL), phenylalanine (Phe, 250 μg/mL), meta-tyrosine (250 μg/mL)+phenylalanine (250 μg/mL), or saline for 3 minutes (to measure p-ERK 1/2) or for 8 hours (to measure p-STAT3). Positive control was obtained by treating LB cells with pervanadate. Controls with acting, total ERK 1/2, and total STAT3 were also added. FIG. 8A illustrates a representative experiment showing p-ERK 1/2 expression. FIG. 8B is a histogram showing the mean of 5 experiments; a, P<0.01 versus saline and versus meta-tyrosine+phenylalanine; P<0.02 versus phenylalanine. FIG. 8C illustrates a representative experiment showing p-STAT3 expression. […]
(§3) On this basis, we analyzed, first, the effect of m-tyrosine on ERK1 and ERK2 as 2 examples of protein kinases that are activated by the mitogen activated protein/extracellular signal-regulated kinase (MAP/ERK) signal transduction pathway that normally couples intracellular responses associated with cell proliferation, to the binding of growth factors to cell surface receptors (Kohno M, and Pouyssegur J. 2006. Targeting the ERK signaling pathway in cancer therapy. Ann Med; 38:200-211). […]

STAT3 = experiment: Western blot of p-STAT3 in LB tumor cells; type: cell-based, mice; conditions: added together with m-tyrosine, 250 μg/mL each, 8 hours
Experimental: as §2, §3

LB tumor cells [3] = experiment: In vitro LB tumor cell proliferation ([3H]-thymidine uptake); type: cell-based, mice; conditions: even with high concentrations
Experimental: as §1
Fractionation of serum from mice bearing a subcutaneous LB tumor (size≧2,000 mm^3) was carried out through several steps of purification (FIG. 1). Serum from normal mice was similarly fractioned as control. At all stages of the purification, the presence of the inhibitory factor was monitored by the [^3H]-thymidine uptake assay as a measure of LB tumor cell proliferation. First, serum was decomplemented and subjected to dialysis. The inhibitory factor was recovered only in the dialyzable fraction (MW<12,500 Da) and was then concentrated by lyophilization and applied successively to Sephadex G-25 and G-15 chromatographic columns, where activity was recovered at fractions corresponding to a molecular weight below 1,000 Da. These fractions were lyophilized and further purified with an HPLC column C18 in a gradient of acetonitrile in TFA (first HPLC). In 12 similar and independent experiments, growth inhibitory activity was systematically recovered in only 1 fraction eluted at near 20% acetonitrile (FIG. 2).
To test directly whether a “cocktail” of amino acids similar to that detected close to the “primary site” was more counteracting of the antitumor effects produced by m- and o-tyrosine than a “secondary site cocktail,” different concentrations of a mixture of m-tyrosine and o-tyrosine (ratio 1:1) were assayed on LB tumor cell proliferation, alone or together with a primary or a secondary site cocktail of amino acids.

[4] = serum of mice bearing s.c. LB tumor >2,000 mm^3, agent i.p. 48 and 24 hours before testing, titer = reciprocal of serum dilution producing 50% inhibition of [3H]thymidine uptake by LB cells

Row | Molecule | effect on serum inhibitory activity of LB tumor-bearing mice [1] | GIU50/mL (X ± SE) [1, 4] | counteracting of the inhibitory effect produced by m- and o-tyrosine (LB tumor cells [2]) | also measured
1 | CN(C)CCCN1c2ccccc2Sc2ccc(Cl)cc21 [Chlorpromazine, chlorpromazine] | significant reduction | – | – | GIU50/mL (X ± SE) ([1]; ip): 84 ± 19 GIU50/mL
2 | C[C@@H]1C[C@H]2[C@@H]3CCC4=CC(=O)C=C[C@]4(C)[C@@]3(F)[C@@H](O)C[C@]2(C)[C@@]1(O)C(=O)CO [Dexamethasone, dexamethasone] | – | – | – | GIU50/mL (X ± SE) ([1]; ip): 70 ± 18 GIU50/mL
3 | Nc1ccn([C@@H]2O[C@H](CO)[C@@H](O)C2(F)F)c(=O)n1 [Gemcitabine, gemcitabine] | significant reduction | 40 ± 6 GIU50/mL | – | –
4 | COc1ccc2c(c1)c(CC(=O)O)c(C)n2C(=O)c1ccc(Cl)cc1 [INDO, indomethacin] | significant reduction | – | – | GIU50/mL (X ± SE) ([1]; ip): 142 ± 16 GIU50/mL
5 | COC(=O)[C@@H](N)CCCNC(=N)N[N+](=O)[O-] [L-NAME] | did not reduce | 266 ± 34 GIU50/mL | – | –
6 | CCCCc1nc(Cl)c(CO)n1Cc1ccc(-c2ccccc2-c2nn[nH]n2)cc1 [Losartant, losartan] | did not reduce | – | – | GIU50/mL (X ± SE) ([1]; ip): 300 ± 30 GIU50/mL
7 | CC(Cc1ccc(O)c(O)c1)C(C)Cc1ccc(O)c(O)c1 (centres unmarked) [NDGA, nordihydroguaiaretic acid] | significant reduction | 116 ± 14 GIU50/mL | – | –
8 | O=C1CCN(c2ccccc2)N1 [Phenidone, phenidone] | significant reduction | 103 ± 19 GIU50/mL | – | –
9 | CC(CN1c2ccccc2Sc2ccccc21)N(C)C (centres unmarked) [Promethazine, promethazine] | significant reduction | 80 ± 9 GIU50/mL | – | –
10 | N[C@@H](CC(=O)O)C(=O)O [aspartic acid] | – | – | counteracted | –
11 | N[C@@H](CCC(=O)O)C(=O)O [glutamic acid] | – | – | counteracted | –
12 | NC(=O)CC[C@H](N)C(=O)O [glutamine] | – | – | counteracted | –
13 | N[C@@H](Cc1c[nH]cn1)C(=O)O [histidine] | – | – | only counteracted the inhibitory effect produced by m-tyrosine | –
14 | N[C@@H](Cc1ccccc1)C(=O)O [phenylalanine, reference compound] | – | – | counteracted | expression of Ki-67 protein in tumor cells (LB tumor; control+m-tyrosine tumors or secondary implants treated with phenylalanine (FIG. 6B)): high expression; growth of secondary LB tumor implant otherwise inhibited by CR (LB tumor; periodically inoculated at the site of the secondary implant): grew similarly to controls; tumor volume of secondary tumor 20 days after the implant in the left flank (MC-C tumor): 680±152 mm^3; tumor volume of secondary tumor 20 days after the implant in the left flank (CEI tumor): 358±38 mm^3; effect on the m-tyrosine-induced reduction of ERK1/ERK2 activation (ERK1 and ERK2): reversed that effect; effect on the m-tyrosine-induced reduction of STAT3 activation (STAT3): reversed that effect
15 | N[C@@H](Cc1ccc(O)cc1)C(=O)O [tyrosine, 4-hydroxyphenylalanine] | – | – | did not reduce | effect on LB cells in vitro (LB tumor cells [3]): innocuous
16 | Catalase | significant reduction | 49 ± 5 GIU50/mL | – | –
